Experimental data reported in ChEMBL document CHEMBL1909046, “DrugMatrix in vitro pharmacology data”.

Legend:
[1] = target: T1, Alpha-1B adrenergic receptor (Rattus norvegicus, UniProt P15823); assay: DRUGMATRIX: Alpha-1B adrenergic receptor radioligand binding (ligand: prazosin); type: cell membranes, Wistar, Liver, Membrane; conditions: Not Active = under 50% inhibition at 10 µM
T1 sequence (P15823 whole entry): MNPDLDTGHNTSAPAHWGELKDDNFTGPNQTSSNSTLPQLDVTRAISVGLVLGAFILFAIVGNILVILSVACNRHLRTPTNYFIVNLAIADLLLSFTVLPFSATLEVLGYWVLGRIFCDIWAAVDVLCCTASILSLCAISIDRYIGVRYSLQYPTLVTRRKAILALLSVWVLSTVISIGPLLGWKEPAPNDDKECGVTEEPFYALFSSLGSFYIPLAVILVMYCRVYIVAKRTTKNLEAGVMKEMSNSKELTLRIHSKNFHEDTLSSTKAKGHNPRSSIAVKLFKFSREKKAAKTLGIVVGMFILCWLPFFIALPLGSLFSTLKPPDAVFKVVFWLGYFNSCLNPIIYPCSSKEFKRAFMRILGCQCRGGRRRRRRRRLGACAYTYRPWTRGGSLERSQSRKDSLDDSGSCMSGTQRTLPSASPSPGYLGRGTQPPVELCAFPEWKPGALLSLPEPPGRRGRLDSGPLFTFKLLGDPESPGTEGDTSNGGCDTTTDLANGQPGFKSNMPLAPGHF

[2] = target: T2, Alpha-2A adrenergic receptor (Homo sapiens, UniProt P08913); type: cell membranes, Sf9, Membrane; conditions: sf9; further: in other assays of this panel Not Active means under 50% inhibition at 10 µM
T2 sequence (P08913 whole entry): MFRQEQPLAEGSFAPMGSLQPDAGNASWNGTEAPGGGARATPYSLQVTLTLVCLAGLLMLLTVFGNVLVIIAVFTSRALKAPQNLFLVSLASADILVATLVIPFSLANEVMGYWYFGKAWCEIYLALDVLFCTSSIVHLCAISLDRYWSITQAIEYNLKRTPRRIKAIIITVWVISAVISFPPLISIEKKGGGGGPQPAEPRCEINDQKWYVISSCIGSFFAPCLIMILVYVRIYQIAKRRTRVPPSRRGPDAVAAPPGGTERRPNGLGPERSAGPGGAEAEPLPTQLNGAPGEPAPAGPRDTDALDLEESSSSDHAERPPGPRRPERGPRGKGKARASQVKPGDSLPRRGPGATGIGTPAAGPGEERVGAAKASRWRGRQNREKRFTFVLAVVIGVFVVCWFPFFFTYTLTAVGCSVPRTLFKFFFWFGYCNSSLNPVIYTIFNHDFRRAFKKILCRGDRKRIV

[3] = target: D(1A) dopamine receptor (Homo sapiens, UniProt P21728); assay: DRUGMATRIX: Dopamine D1 radioligand binding (ligand: [3H] SCH-23390); type: cell membranes, CHO, Membrane; conditions: cho; Not Active = under 50% inhibition at 10 µM
[4] = target: Kappa-type opioid receptor (Homo sapiens, UniProt P41145); assay: DRUGMATRIX: Opiate kappa (OP2, KOP) radioligand binding (ligand: [3H] Diprenorphine); type: cell membranes, HEK293, Membrane; conditions: hek293; Not Active = under 50% inhibition at 10 µM
[5] = target: Cytochrome P450 2C9 (Homo sapiens, UniProt P11712); conditions: bti-tn-5b1-4; further: in other assays of this panel Not Active means under 50% inhibition at 10 µM
[6] = target: Cytochrome P450 2D6 (Homo sapiens, UniProt P10635); conditions: bti-tn-5b1-4; further: in other assays of this panel Not Active means under 50% inhibition at 10 µM
[7] = target: T3, Glucocorticoid receptor (Homo sapiens, UniProt P04150); conditions: hela s3; further: in other assays of this panel Not Active means under 50% inhibition at 10 µM
T3 sequence (P04150 whole entry): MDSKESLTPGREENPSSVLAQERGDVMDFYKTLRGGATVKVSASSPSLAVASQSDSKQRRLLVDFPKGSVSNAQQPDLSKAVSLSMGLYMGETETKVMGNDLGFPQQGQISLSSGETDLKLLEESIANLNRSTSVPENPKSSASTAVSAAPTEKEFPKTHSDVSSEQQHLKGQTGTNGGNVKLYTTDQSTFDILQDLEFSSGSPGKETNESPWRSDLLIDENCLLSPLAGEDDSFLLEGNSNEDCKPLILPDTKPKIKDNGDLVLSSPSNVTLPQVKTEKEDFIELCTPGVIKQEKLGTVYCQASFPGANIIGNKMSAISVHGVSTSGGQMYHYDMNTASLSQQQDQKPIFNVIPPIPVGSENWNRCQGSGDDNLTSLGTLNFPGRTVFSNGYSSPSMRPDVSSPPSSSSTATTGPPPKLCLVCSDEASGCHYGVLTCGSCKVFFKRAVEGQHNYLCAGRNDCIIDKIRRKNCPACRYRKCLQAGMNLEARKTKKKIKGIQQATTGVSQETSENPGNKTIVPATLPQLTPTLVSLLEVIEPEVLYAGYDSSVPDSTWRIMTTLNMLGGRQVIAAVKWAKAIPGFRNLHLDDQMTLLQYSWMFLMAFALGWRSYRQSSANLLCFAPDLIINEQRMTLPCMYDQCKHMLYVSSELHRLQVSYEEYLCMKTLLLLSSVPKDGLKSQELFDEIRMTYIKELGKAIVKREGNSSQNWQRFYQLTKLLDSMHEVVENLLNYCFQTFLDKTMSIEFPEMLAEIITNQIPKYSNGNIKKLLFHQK

Sequence of Cytochrome P450 2C9 (P11712 whole entry): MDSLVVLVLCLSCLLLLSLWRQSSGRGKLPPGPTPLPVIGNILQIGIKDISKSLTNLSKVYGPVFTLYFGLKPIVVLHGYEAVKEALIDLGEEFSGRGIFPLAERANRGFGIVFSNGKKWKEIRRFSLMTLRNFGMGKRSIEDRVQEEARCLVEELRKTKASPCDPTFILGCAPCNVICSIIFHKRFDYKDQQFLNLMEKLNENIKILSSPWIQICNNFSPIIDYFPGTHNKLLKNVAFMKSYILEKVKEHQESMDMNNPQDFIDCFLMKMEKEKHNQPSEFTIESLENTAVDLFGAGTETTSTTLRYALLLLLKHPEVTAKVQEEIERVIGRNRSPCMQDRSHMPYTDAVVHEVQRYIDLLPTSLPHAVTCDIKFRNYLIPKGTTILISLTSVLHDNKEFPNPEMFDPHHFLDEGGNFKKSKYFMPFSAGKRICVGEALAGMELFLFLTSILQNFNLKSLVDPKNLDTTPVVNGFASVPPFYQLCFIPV
Sequence of Cytochrome P450 2D6 (P10635 whole entry): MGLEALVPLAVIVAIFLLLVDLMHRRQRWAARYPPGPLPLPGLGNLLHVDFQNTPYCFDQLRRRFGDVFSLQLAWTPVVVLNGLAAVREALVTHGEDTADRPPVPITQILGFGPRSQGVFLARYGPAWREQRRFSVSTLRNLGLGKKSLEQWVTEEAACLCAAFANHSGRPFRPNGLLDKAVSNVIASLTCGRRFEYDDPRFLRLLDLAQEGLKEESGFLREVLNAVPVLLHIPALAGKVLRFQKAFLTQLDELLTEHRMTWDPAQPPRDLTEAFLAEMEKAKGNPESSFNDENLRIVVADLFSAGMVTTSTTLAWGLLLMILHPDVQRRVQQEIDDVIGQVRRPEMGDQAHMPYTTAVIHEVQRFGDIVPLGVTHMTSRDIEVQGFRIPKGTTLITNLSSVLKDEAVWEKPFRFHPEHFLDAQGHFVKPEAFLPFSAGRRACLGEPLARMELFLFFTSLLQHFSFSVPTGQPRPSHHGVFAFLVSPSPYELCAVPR
Sequence of D(1A) dopamine receptor (P21728 whole entry): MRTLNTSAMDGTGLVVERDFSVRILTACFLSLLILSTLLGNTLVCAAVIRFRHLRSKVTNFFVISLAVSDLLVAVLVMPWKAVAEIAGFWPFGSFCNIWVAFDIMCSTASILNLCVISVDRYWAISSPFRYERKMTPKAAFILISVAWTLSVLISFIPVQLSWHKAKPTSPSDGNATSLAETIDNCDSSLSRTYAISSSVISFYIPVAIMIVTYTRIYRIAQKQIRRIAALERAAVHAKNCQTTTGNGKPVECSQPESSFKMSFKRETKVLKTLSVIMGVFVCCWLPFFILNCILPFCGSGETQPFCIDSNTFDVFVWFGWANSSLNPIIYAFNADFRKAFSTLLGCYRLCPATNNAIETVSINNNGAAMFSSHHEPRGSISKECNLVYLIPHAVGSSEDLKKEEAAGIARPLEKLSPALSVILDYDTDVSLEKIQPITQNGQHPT
Sequence of Kappa-type opioid receptor (P41145 whole entry): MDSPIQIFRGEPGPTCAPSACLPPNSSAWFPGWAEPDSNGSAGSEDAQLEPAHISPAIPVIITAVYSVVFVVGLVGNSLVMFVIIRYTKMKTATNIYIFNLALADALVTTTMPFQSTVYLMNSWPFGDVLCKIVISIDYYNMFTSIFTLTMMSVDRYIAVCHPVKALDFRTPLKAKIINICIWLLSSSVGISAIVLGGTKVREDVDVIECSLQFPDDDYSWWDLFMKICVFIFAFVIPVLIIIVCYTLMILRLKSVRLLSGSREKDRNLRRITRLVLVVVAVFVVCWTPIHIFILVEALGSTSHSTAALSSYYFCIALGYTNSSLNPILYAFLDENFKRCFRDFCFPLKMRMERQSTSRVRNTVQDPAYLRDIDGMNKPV

Cc1cnc(NC(=O)C2=C(O)c3ccccc3S(=O)(=O)N2C)s1 [MELOXICAM]
Not Active: IC50 [1] | IC50 [2] | IC50 [3] | IC50 [4] | IC50 [5] | Ki [5] | IC50 [6] | Ki [6] | IC50 [7]

CC(N)C12CC3CC(CC(C3)C1)C2 (stereo not drawn) [RIMANTADINE]
Not Active: IC50 [1] | IC50 [2] | IC50 [3] | IC50 [4] | IC50 [5] | Ki [5] | IC50 [6] | Ki [6] | IC50 [7]
